Format in all cases: functional, cell-based
The subject of one test is HT-29. Description: Compound was tested for its effect on the proliferation of HT-29 human colon adenocarcinoma.
A further test has as its system MOLT-4. Description: Compound was tested for its effect on the proliferation of MOLT-4 human lymphoblastic T-leukemia cell line.
In another test the test system is CCRF-SB. Kind of test: Compound was tested for its effect on the proliferation of CCRF-SB human lymphoblastic B-leukemia cell line.
The subject of test [1] is MT4. Kind of test: Compound was tested for its effect on the proliferation of MT-4 cells expressing the TAT gene of HTLV-1. To be noted: Homo sapiens.
Another test has as its system WIL2-NS. Description: Compound was tested for its effect on the proliferation of WIL-2-NS cell line. The settings on record: Homo sapiens.
A further test concerns Raji. Kind of test: Compound was tested for its effect on the proliferation of RAJI burkitt lymphoma cell line. The settings on record: Homo sapiens.
For the next test, the system named is CHO-K1. Kind of test: Compound was tested for its effect on the proliferation of CHO-K1 Chinese hamster ovary cell line. To be noted: Cricetulus griseus.
The subject of test [2] is CCRF-CEM. Description: Compound was tested for its effect on the proliferation of CCRF-CEM human lymphoblastic T-leukemia cell line.
Another test deals with HEL 299. Kind of test: Compound was tested for its effect on the proliferation of […] human diploid embryonal lung cell line.
The test system of the next test is C8166. Kind of test: Compound was tested for its effect on the proliferation of C8166 cells expressing the TAT gene of HTLV-1. To be noted: Homo sapiens.
The next test relates to L1210. Description: Compound was tested for its effect on the proliferation of L1210 murine leukemia cell line. To be noted: Mus musculus.
The next test deals with ACHN. Description: Compound was tested for its effect on the proliferation of ACHN human kidney adenocarcinoma.
Test [3] relates to MT4. Kind of test: Dose required to achieve 50% protection of MT-4 cells against the cytopathic effect of HIV-1. To be noted: Homo sapiens. Background: Damage to the host cells serves as the signal in cytopathic effect assays.
The test system of test [4] is CCRF-CEM. Description: Compound was tested for its effect on the proliferation of CCRF-CEM human lymphoblastic T-leukemia cell line.

Each structure is given as a SMILES string. Bounds are passed on as bounds.

In general, IC50 refers to the concentration that gives 50% inhibition. Read a low IC50 as greater potency in that assay. For the molecule `CCCCOC(=O)c1nn([C@@H]2O[C@H](CO)[C@@H](O)[C@H]2O)cc1I`, the IC50 is 25 µM with HT-29; 16 µM in the test on MOLT-4; 21 µM in the test on CCRF-SB; 25 µM with MT4 [1]; 23 µM in the test with WIL2-NS; 17 µM in the test with Raji. In addition, the IC50 in the test on CHO-K1 came out at 37 µM; with CCRF-CEM [2], 19 µM; with HEL 299, 40 µM; in the test on C8166, 15 µM.
With `COc1cccc2c1C(=O)c1c(O)c3c(c(O)c1C2=O)C[C@@](O)(C(=O)CO)C[C@@H]3O[C@H]1C[C@H](N)[C@H](O)[C@H](C)O1` [DOXORUBICIN], the IC50 is 1.1 µM in the test on HT-29; 0.05 µM in the test with MOLT-4; 0.9 µM in the test on L1210; 0.05 µM in the test with CCRF-SB; 0.05 µM in the test with MT4 [1]; 0.2 µM with WIL2-NS. The IC50 in the test with Raji came out at 0.1 µM; in the test on CHO-K1, 1.2 µM; with ACHN, 0.7 µM; in the test with CCRF-CEM [2], 0.08 µM; in the test with HEL 299, 1.7 µM; in the test with C8166 it was 0.05 µM.
`COC(=O)c1csc([C@@H]2O[C@H](CO)[C@@H](O)[C@H]2O)n1`: the IC50 in the test with HT-29, in the test on MOLT-4, with L1210, in the test on CCRF-SB, in the test on MT4 [1] and in the test on WIL2-NS was more than 300 µM each time. Also, the IC50 with Raji, with CHO-K1, in the test on ACHN, in the test with CCRF-CEM [2] and in the test with HEL 299 was more than 300 µM throughout.
In the case of `Cc1noc(-c2nn([C@@H]3O[C@H](CO)[C@@H](O)[C@H]3O)cc2I)n1`, the 50% inhibitory concentration (IC50) in the test on HT-29 was determined as 4.8 µM; in the test on MOLT-4, 3 µM; in the test with CCRF-SB, 2.8 µM; in the test with MT4 [1], 2.3 µM; in the test with WIL2-NS it was 3.5 µM; in the test with CHO-K1, 8.5 µM. The IC50 in the test with ACHN was found to be 6.2 µM; in the test on CCRF-CEM [2], 2.6 µM; with HEL 299 it was 7.9 µM.
For the molecule `O=C(O)c1nn([C@@H]2O[C@H](CO)[C@@H](O)[C@H]2O)cc1I`, the 50% inhibitory concentration (IC50) with HT-29, in the test on MOLT-4, in the test with L1210, with CCRF-SB, with MT4 [1] and in the test with WIL2-NS was more than 300 µM in each case. Also, the IC50 in the test on Raji, in the test on CHO-K1, with ACHN, in the test on CCRF-CEM [2], in the test with HEL 299 and in the test with C8166 was more than 300 µM in each case.
As usually defined, the EC50 is the concentration needed to bring the measured effect to its halfway point. A high value points to a less potent agent. In the test with MT4 [3], `COC(=O)c1nn([C@@H]2O[C@H](CO)[C@@H](O)[C@H]2O)cc1I.Cc1cn([C@H]2C[C@H](N=[N+]=[N-])[C@@H](CO)O2)c(=O)[nH]c1=O` had an EC50 of 0.005 µM.
For `NC(=O)c1ncn([C@@H]2O[C@H](CO)[C@@H](O)[C@H]2O)n1` [RIBAVIRIN], the IC50 in the test on MOLT-4 was 5.7 µM; in the test on L1210, 16.6 µM; in the test with CCRF-SB it was more than 100 µM; in the test with MT4 [1], 23 µM; in the test with WIL2-NS it was more than 100 µM; with Raji, 56 µM. Moreover, the IC50 in the test on CHO-K1 is 50 µM; with ACHN it was more than 100 µM; with CCRF-CEM [2], 19 µM; in the test on HEL 299 it was 45 µM; with C8166, more than 100 µM.
Consider `C#Cc1cn([C@@H]2O[C@H](CO)[C@@H](O)[C@H]2O)nc1C(N)=O`, for which the IC50 in the test with HT-29, in the test with MOLT-4, in the test on L1210, in the test with CCRF-SB, in the test on MT4 [1] and with WIL2-NS was more than 300 µM throughout. Also, the IC50 in the test with Raji was more than 300 µM; with CHO-K1 it was more than 300 µM; in the test with ACHN, 287 µM; with CCRF-CEM [2], more than 300 µM; with HEL 299, 235 µM; with C8166, 22 µM.
In turn, `COC(=O)c1nn([C@@H]2O[C@H](CO)[C@@H](O)[C@H]2O)cc1I.OC[C@@H]1CC[C@H](n2cnc3c(O)ncnc32)O1` showed an EC50 with MT4 [3] of 3 µM.
Regarding `COC(=O)c1ncn([C@@H]2O[C@H](CO)[C@@H](O)[C@H]2O)n1`, the IC50 in the test on HT-29, with MOLT-4, with L1210, with CCRF-SB, in the test with MT4 [1] and with WIL2-NS was more than 300 µM in each case. For the same molecule, the IC50 in the test on Raji, with CHO-K1, in the test on ACHN, in the test with CCRF-CEM [2] and in the test on HEL 299 was more than 300 µM throughout.
Consider `NC(=O)c1nn([C@@H]2O[C@H](CO)[C@@H](O)[C@H]2O)cc1I`, for which the IC50 was more than 300 µM in the test with HT-29; 9.1 µM in the test on MOLT-4; more than 300 µM with L1210; more than 300 µM in the test with CCRF-SB; 2.4 µM in the test with CCRF-CEM [4]; 2.1 µM in the test on MT4 [1]. The half-inhibitory concentration (IC50) was more than 300 µM in the test with WIL2-NS; more than 300 µM with Raji; more than 300 µM in the test on CHO-K1; more than 300 µM in the test with ACHN; more than 300 µM with HEL 299; 4 µM in the test with C8166.
With `COC(=O)c1nn([C@@H]2O[C@H](CO)[C@@H](O)[C@H]2O)cc1I`, the concentration for half-maximal inhibition (IC50) was 2.8 µM with HT-29; 0.9 µM with MOLT-4; 2.4 µM with L1210; 0.9 µM with CCRF-SB; 1.6 µM with MT4 [1]; 1.6 µM in the test with WIL2-NS. Also, the IC50 with Raji worked out at 0.2 µM; in the test on CHO-K1, 7.9 µM; with ACHN, 3.6 µM; in the test on CCRF-CEM [2], 1.5 µM; in the test on HEL 299, 4 µM; with C8166 it was 0.2 µM.
Regarding `Cc1cn([C@H]2C[C@H](N=[N+]=[N-])[C@@H](CO)O2)c(=O)[nH]c1=O` [ZIDOVUDINE], the EC50 in the test with MT4 [3] came to 0.002 µM.
